Results from patent US10253002B2, “Compounds and methods of treating infections” (Neoculi Pty Ltd., priority 2013, dated 2019).

Legend:
MRSA = experiment: Broth microdilution MIC, Example 7 (NCL812 and analogues); format: cell-based, Staphylococcus aureus; conditions: MIC testing, two MRSA strains
Procedure: (§1) Minimum inhibitory concentrations (μg/ml) were determined using the broth microdilution method recommended by the Clinical and Laboratory Standards Institute (CLSI). MIC breakpoints were determined by visual assessment and then confirmed using an ELISA plate reader, measuring absorbance levels at 600 nm. Bacterial growth (turbidity) in the wells with antimicrobial was compared with the amount of growth (turbidity) in the growth-control well (containing no antimicrobial). All isolates were tested in duplicate, if there was a difference of greater than one two-fold dilution in the results, the test was repeated a third time. The purity of the isolates was closely monitored during testing by subculturing the prepared bacterial inoculum onto SBA (sheep blood agar). […] The MIC50, MIC20 and MIC range (minimum and maximum) were calculated for each of the bacterial groups.
(§2) MICs were determined against two MRSA strains, two VRE strains and one strain each of E. coli and Pseudomonas aeruginosa.

VRE = experiment: as above; format: cell-based, Enterococcus spp.; conditions: for activity against VRE among analogues: MIC testing, two VRE strains; for VRE: bioassay ranking
Procedure: as §1, §2

| SMILES | activity against MRSA among analogues (MRSA) | activity against VRE among analogues (VRE) | VRE (VRE) [µg/mL] |
| --- | --- | --- | --- |
| Cl.N=C(NN=C(c1ccc(Cl)cc1O)C1CCCC1)NN=C(c1ccc(Cl)cc1O)C1CCCC1 [NCL159] | greatest activity | greatest activity | – |
| Cl.N=C(NN=Cc1ccc(OC(F)(F)F)cc1)NN=Cc1ccc(OC(F)(F)F)cc1 [NCL160] | greatest activity | greatest activity | – |
| CC(=NNC(=N)NN=C(C)c1ccc(N2CCNCC2)cc1)c1ccc(N2CCNCC2)cc1.Cl [NCL161] | greatest activity | greatest activity | – |
| Cl.N=C(NN=Cc1ccc(SC(F)(F)F)cc1)NN=Cc1ccc(SC(F)(F)F)cc1 [NCL166] | greatest activity | greatest activity | – |
| CC(=NNC(=N)NN=C(C)c1ccccn1)c1ccccn1.Cl [NCL172] | greatest activity | – | – |
| Cl.N=C(N/N=C/c1ccc(Cl)nc1)N/N=C/c1ccc(Cl)nc1 [NCL175] | – | greatest activity | – |
| C/C(=N\Nc1cc(N/N=C(\C)c2ccc(Cl)cc2)ncn1)c1ccc(Cl)cc1 [NCL178] | greatest activity | greatest activity | – |
| OC/C(=N\Nc1cc(N/N=C(\CO)c2ccc(Cl)cc2)ncn1)c1ccc(Cl)cc1 [NCL180] | greatest activity | greatest activity | 32 |
| Clc1ccc(/C=N/Nc2cc(N/N=C/c3ccc(Cl)cc3)ncn2)cc1 [NCL181] | greatest activity | greatest activity | – |
| CC(Nc1cc(Cl)nc(N)n1)c1ccccc1 (stereo not drawn) [NCL182] | greatest activity | greatest activity | – |
| CC(Nc1cc(NC(C)c2ccccc2)ncn1)c1ccccc1 (stereo not drawn) [NCL183] | greatest activity | greatest activity | – |
| CC(Nc1cc(NC(C)c2ccccc2)nc(N)n1)c1ccccc1 (stereo not drawn) [NCL184] | greatest activity | greatest activity | 32 |
| C/C(=N\Nc1cc(N/N=C(\C)c2ccc(Cl)cc2)ncn1)c1ccc(Cl)cc1.Cl [NCL185] | greatest activity | greatest activity | – |
| CC(Nc1cnc(NC(C)c2ccc(Cl)cc2)cn1)c1ccc(Cl)cc1 (stereo not drawn) [NCL186] | greatest activity | greatest activity | – |
| Cl.Clc1ccc(/C=N/Nc2cc(N/N=C/c3ccc(Cl)cc3)ncn2)cc1 [NCL187] | greatest activity | greatest activity | – |
| Cl.OC/C(=N\Nc1cc(N/N=C(\CO)c2ccc(Cl)cc2)ncn1)c1ccc(Cl)cc1 [NCL189] | greatest activity | greatest activity | – |
| C/C(=N\NC(=N)N)c1ccc(Cl)cc1.Cl [NCL191] | greatest activity | greatest activity | – |
| Cl.N=C(N)NN=C(C(=O)O)c1ccccc1 [NCL192] | greatest activity | greatest activity | – |
